Test results reported in patent US10973748B2, “Compositions and methods for lightening skin and reducing hyperpigmentation” (Versitech Limited, priority 2016, dated 2021).

Assays:
[1] = system: tyrosinase-related protein-2 (TRP2); experiment: Western blotting of TRP-2 protein level in melan-a cells; format: cell-based, murine; settings: α-MSH, 72 hrs, 20 μM
Protocol: Melan-a cells (3×10^5 cells/well) were seeded in 4 mL of culture medium in a 6-well plate for at least 24 hrs prior to use. The cells were treated with α-MSH (1 μM) alone, α-MSH plus plus different concentration of agents for 72 hrs. The cells were washed with cold PBS and then lysed in 100 μL of RIPA buffer containing 1% Nonidet P-40, 0.1% sodium dodecylsulfate, 0.5% sodium deoxycholate, and 2% protease inhibitor at 4° C. Samples were centrifuged at 14,000 rpm for 30 mins at 4° C., and total proteins in the supernatant were separated. 10 μg of denatured proteins were loaded per lane, and separated by 10% SDS-PAGE gel. Proteins were then transferred to Immobilon-P Transfer Membranes (Millipore Co., Bed-ford, Mass.) by semidry transfer. Membranes were incubated with primary antibodies specific for Tyrosinase, tyrosinase-related protein-1 (TRP1), tyrosinase-related protein-2 (TRP2), and microphthalmia-associated transcription factor (MITF). The blots were subsequently washed and incubated with the appropriate secondary antibodies. Immunoreactive protein bands were visualized with enhanced chemiluminescence western blotting detection reagents and quantified using an ODYSSEY Fc Imaging system. The amounts of protein loaded were normalized against a control protein, β-actin.

[2] = system: melan-a cells; experiment: Melanosome autophagy by fluorescence microscopy; format: cell-based, murine; settings: α-MSH, rapamycin 0.5 μM 24 hrs, 6-CEPN 10 μM, 8-CEPQ 5 μM 72 hrs
Protocol: Melan-a cells (1.5×10^5 cells/well) were seeded on coverslips in 6-well palte. The cells were treated with (1) α-MSH (1 μM) alone for 24 hrs, (2) α-MSH (1 μM) plus rapamycin (0.5 μM) for 24 hrs, (3) α-MSH (1 μM) plus 6-CEPN (10 μM), or (3) α-MSH (1 μM) plus 8-CEPQ (5 μM) for 72 hrs. Culture medium was removed carefully after the cells reached 50%˜70% level of confluence. Cells were stained by microscopy dual detection reagents (autophagy detection kit, Abcam) for 30 mins at 37° C. The stained cells were analyzed by wide-field fluorescence microscopy (60× magnification). Standard FITC filter and DAPI filter were set to image the autophagic signal and the nuclear signal, respectively.

[3] = system: MelanoDerm (Mel-300-A) epidermal equivalents containing melanocytes; experiment: Depigmentation in artificial skin model: brightness and L* value; format: cell-based, human; settings: 6-CEPN 10 μM, 8-CEPQ 5 μM
Protocol: (§1) Epidermal equivalents containing melanocytes (Mel-300-A) were maintained according to the manufacturer's instructions. Mel-300-A tissue was cultured in EPI-100-NMM-113 medium for 14 days. Agents were dissolved in tissue culture medium and changed every other day. The test agents were either (1) rapamycin (2.5 μM), as the positive control in depigmentation, (2) 6-CEPN (10 μM), or (3) 8-CEPQ (5 μM). The concentration of rapamycin used was lower than 6-CEPN and 8-CEPQ, as rapamycin is toxic to cells at higher concentration. Pigmentation of these skin equivalents was compared against treatment of cells with a culture medium only (denoted as “vehicle”). Tissue viability was assessed on day 14 by CCK-8 assay as described in Example 1. On day 14, single tissues were harvested and photographed. The L* parameter was used to evaluate skin lightening or darkening. The lighter the skin, the greater the L* value. ΔL* value was measured by a Chroma Meter CR400 (Konica Minolta) for an evaluation of lightening as a function of time. Three tissues for each treatment were frozen for the Solvable Melanin assay (Bessou-Touya et al., “Chimeric human epidermal reconstructs to study the role of melanocytes and keratinocytes in pigmentation and photoprotection.” Journal of investigative dermatology 111(6):1103-1108 (1998)). Additional tissues were fixed by 10% formanin. For melanin staining in paraffin-embedded tissues, Fontana-Masson silver staining was used as previously detailed (Barbosa et al., “A simple and economical modification of the Masson-Fontana method for staining melanin granules and enterochromaffin cells.” Stain technology 59(4):193-196 (1984)).

[4] = system: MelanoDerm (Mel-300-A) epidermal equivalents containing melanocytes; experiment: Tissue viability of artificial skin model (CCK-8); format: cell-based, human; settings: whole treatment period (14 days), rapamycin 2.5 μM, 6-CEPN 10 μM, 8-CEPQ 5 μM
Protocol: as §1

[5] = system: MelanoDerm (Mel-300-A) epidermal equivalents containing melanocytes; experiment: Solvable Melanin assay in artificial skin model; format: cell-based, human; settings: 14 days, rapamycin 2.5 μM, 6-CEPN 10 μM, 8-CEPQ 5 μM
Protocol: Epidermal equivalents containing melanocytes (Mel-300-A) were maintained according to the manufacturer's instructions. Mel-300-A tissue was cultured in EPI-100-NMM-113 medium for 14 days. Agents were dissolved in tissue culture medium and changed every other day. The test agents were either (1) rapamycin (2.5 μM), as the positive control in depigmentation, (2) 6-CEPN (10 μM), or (3) 8-CEPQ (5 μM). The concentration of rapamycin used was lower than 6-CEPN and 8-CEPQ, as rapamycin is toxic to cells at higher concentration. Pigmentation of these skin equivalents was compared against treatment of cells with a culture medium only (denoted as “vehicle”). Tissue viability was assessed on day 14 by CCK-8 assay as described in Example 1. On day 14, single tissues were harvested and photographed. The L* parameter was used to evaluate skin lightening or darkening. The lighter the skin, the greater the L* value. ΔL* value was measured by a Chroma Meter CR400 (Konica Minolta) for an evaluation of lightening as a function of time. Three tissues for each treatment were frozen for the Solvable Melanin assay (Bessou-Touya et al., “Chimeric human epidermal reconstructs to study the role of melanocytes and keratinocytes in pigmentation and photoprotection.” Journal of investigative dermatology 111(6):1103-1108 (1998)). Additional tissues were fixed by 10% formanin. […]

O=C1C[C@@H](c2ccc(O)cc2)Oc2cc(O)c(/C=C/c3ccccc3)c(O)c21 [6-CEPN, 6-C-(E-phenylethenyl)-naringenin]
protein level of TRP-2 [1]: significantly suppressed
melanosome autophagy [2]: induced melanosome autophagy
brightness of the tissues (visual examination) ([3]; 14 days, rapamycin 2.5 μM): increased the brightness of the tissues
L* value vs negative control ([3]; day 14, rapamycin 2.5 μM): increased the L* value
cytotoxicity (tissue viability) [4]: without significant cytotoxicity
amount of melanin in human skin equivalents [5]: significantly inhibited the amount of melanin
